Measured values from patent publication US20240245793A1, “PSD-95 INHIBITORS AND USES THEREOF” (priority 2021, published 2024).
Where two headings read alike, the source gives them in different places.

Tested on: HeLa cells stably expressing HaloGFP
Experiment: Chloroalkane penetration assay (CAPA), membrane permeability and cellular uptake
Assay type: cell-based
Text: Since PSD-95 is located intracellularly, it is essential for any drug targeting PSD-95 to efficiently cross the cell membrane. To assess the cellular permeability and delivery to the cytosol of the compounds as defined herein, the cellular chloroalkane penetration assay (CAPA) may be used (Peraro et al. 2018). This assay takes advantage of a modified haloalkane dehalogenase designed to covalently bind chloroalkane (CA) molecules. A HeLa cell line expressing a fusion protein comprising a HaloTag, a green fluorescent protein (GFP) and a mitochondria-targeting peptide is used to report cytosolic delivery. The general format of the CAPA is a pulse-chase assay (Deprey & Kritzer, 2020). Cells expressing the HaloTag enzyme are incubated with CA-tagged peptides. When these CA-peptides penetrate the cell membrane and reach the cytosol, they will bind to and react with the HaloTag (pulse step). Following a washing step, the cells are incubated with a CA-tagged dye that quantitatively penetrates the cell membrane and reacts with remaining unreacted HaloTag sites (chase step). Flow cytometry is used to measure the fluorescence intensity of the cells and the measured fluorescence is inversely proportional to the amount of CA-peptides that reach the penetrated the cells and can thus be used to assess cytosolic delivery. The obtained data is commonly expressed as CP50 values, the concentration at which 50% cell penetration is observed. The CP50 value of a compound may be measured as described in example 4.
The membrane permeability of compounds 10 to 75 was determined in HeLa cells stably expressing HaloGFP exclusively located in the cytosol. Cells were seeded at a density of 40.000 cells/well one day prior to the experiment. After the growth media was aspirated and replaced by 100 μL of Opti-MEM, 25 μL of a prepared serial dilution of the ligand in Opti-MEM was added to the cells (constant DMSO concentration), and the plate was incubated for 4 h at 37° C. and 5% CO2. The contents of the wells were aspirated, and cells were washed with fresh Opti-MEM for 15 min. After aspiration of the wash, the cells were incubated with TAMRA-CA (5 μM) for 15 min. After aspiration of the chase solution, cells were washed with Opti-MEM for 30 min. Following removal of the wash, cells were trypsinized, resuspended in PBS (2% FBS), and analyzed using a benchtop flow cytometer. Using no ligand and no TAMRA-CA control well, the obtained fluorescence intensity data was normalized and plotted as dose-response curves. Reported CP50 values represent half-maximum red fluorescence which behaves inverse to cell penetration of the ligand.

[1] = CA-tagged ligands, 4 h at 37° C., L-TAT and L-Arg9, mean ± SEM (Table 10, FIG. 7)

| SMILES | CP50 [1] [µM] | CP50 [µM] |
| --- | --- | --- |
| CC(C)[C@H](NC(=O)[C@H](CCCNC(=N)N)NC(=O)[C@@H](NC(=O)[C@H](CCC(=O)O)NC(=O)[C@H](CCCCN)NC(=O)CCOCCOCCN(CCOCCOCCC(=O)N[C@@H](CCCCN)C(=O)N[C@@H](CCC(=O)O)C(=O)N[C@H](C(=O)N[C@@H](CCCNC(=N)N)C(=O)N[C@H](C(=O)O)C(C)C)[C@@H](C)O)C(=O)[C@H](CCCNC(=N)N)NC(=O)[C@H](CCCNC(=N)N)NC(=O)[C@H](CCCNC(=N)N)NC(=O)[C@H](CCC(N)=O)NC(=O)[C@H](CCCNC(=N)N)NC(=O)[C@H](CCCNC(=N)N)NC(=O)[C@H](CCCCN)NC(=O)[C@H](CCCCN)NC(=O)[C@H](CCCNC(=N)N)NC(=O)CNC(=O)[C@H](Cc1ccc(O)cc1)NC(=O)CCC(=O)NCCOCCOCCCCCCCl)[C@@H](C)O)C(=O)O [Compound 18] | 47.7 ± 1.0 | – |
| CC[C@H](C)[C@H](NC(=O)CCOCCOCCN(CCOCCOCCC(=O)N[C@H](C(=O)N[C@@H](CCC(=O)O)C(=O)N[C@H](C(=O)N[C@@H](CC(=O)O)C(=O)N[C@H](C(=O)O)C(C)C)[C@@H](C)O)[C@@H](C)CC)C(=O)[C@H](CCCNC(=N)N)NC(=O)[C@H](CCCNC(=N)N)NC(=O)[C@H](CCCNC(=N)N)NC(=O)[C@H](CCCNC(=N)N)NC(=O)[C@H](CCCNC(=N)N)NC(=O)[C@H](CCCNC(=N)N)NC(=O)[C@H](CCCNC(=N)N)NC(=O)CCC(=O)NCCOCCOCCCCCCCl)C(=O)N[C@@H](CCC(=O)O)C(=O)N[C@H](C(=O)N[C@@H](CC(=O)O)C(=O)N[C@H](C(=O)O)C(C)C)[C@@H](C)O [Compound 64] | – | 1.66 ± 0.43 |
| CC[C@H](C)[C@H](NC(=O)CCOCCOCCN(CCOCCOCCC(=O)N[C@H](C(=O)N[C@@H](CO)C(=O)N[C@H](C(=O)N[C@@H](CC(=O)O)C(=O)N[C@H](C(=O)O)C(C)C)[C@@H](C)O)[C@@H](C)CC)C(=O)[C@H](CCCNC(=N)N)NC(=O)[C@H](CCCNC(=N)N)NC(=O)[C@H](CCCNC(=N)N)NC(=O)[C@H](CCC(N)=O)NC(=O)[C@H](CCCNC(=N)N)NC(=O)[C@H](CCCNC(=N)N)NC(=O)[C@H](CCCCN)NC(=O)[C@H](CCCCN)NC(=O)[C@H](CCCNC(=N)N)NC(=O)CNC(=O)[C@H](Cc1ccc(O)cc1)NC(=O)CCC(=O)NCCOCCOCCCCCCCl)C(=O)N[C@@H](CO)C(=O)N[C@H](C(=O)N[C@@H](CC(=O)O)C(=O)N[C@H](C(=O)O)C(C)C)[C@@H](C)O [Compound 20] | 41.9 ± 1.6 | – |
| CC[C@@H](C)[C@@H](NC(=O)[C@@H](CC(C)C)NC(=O)[C@H]1CCCN1C(=O)CCC(=O)NCCOCCOCCCCCCCl)C(=O)N[C@H](Cc1ccc(O)cc1)C(=O)N[C@H](CC(C)C)C(=O)N[C@H](CCCNC(=N)N)C(=O)N[C@H](CC(C)C)C(=O)N[C@H](CC(C)C)C(=O)N[C@H](CCCNC(=N)N)C(=O)NCC(=O)N[C@H](CCC(N)=O)C(=O)N[C@H](Cc1ccccc1)C(=O)N(CCOCCOCCC(=O)N[C@H](C(=O)N[C@@H](CCC(=O)O)C(=O)N[C@H](C(=O)N[C@@H](CC(=O)O)C(=O)N[C@H](C(=O)O)C(C)C)[C@@H](C)O)[C@@H](C)CC)CCOCCOCCC(=O)N[C@H](C(=O)N[C@@H](CCC(=O)O)C(=O)N[C@H](C(=O)N[C@@H](CC(=O)O)C(=O)N[C@H](C(=O)O)C(C)C)[C@@H](C)O)[C@@H](C)CC [Compound 59] | – | 67.2 ± 5.3 |
| CC[C@H](C)[C@H](NC(=O)CCOCCOCCN(CCOCCOCCC(=O)N[C@H](C(=O)N[C@@H](CCC(=O)O)C(=O)N[C@H](C(=O)N[C@@H](CC(=O)O)C(=O)N[C@H](C(=O)O)C(C)C)[C@@H](C)O)[C@@H](C)CC)C(=O)[C@H](Cc1ccccc1)NC(=O)[C@H](CCC(N)=O)NC(=O)CNC(=O)[C@H](CCCNC(=N)N)NC(=O)[C@H](CC(C)C)NC(=O)[C@H](CC(C)C)NC(=O)[C@H](CCCNC(=N)N)NC(=O)[C@H](CC(C)C)NC(=O)[C@H](Cc1ccc(O)cc1)NC(=O)[C@@H](NC(=O)[C@H](CC(C)C)NC(=O)[C@@H]1CCCN1C(=O)CCC(=O)NCCOCCOCCCCCCCl)[C@@H](C)CC)C(=O)N[C@@H](CCC(=O)O)C(=O)N[C@H](C(=O)N[C@@H](CC(=O)O)C(=O)N[C@H](C(=O)O)C(C)C)[C@@H](C)O [Compound 57] | – | 17.9 ± 0.3 |
| CC(C)C[C@H](NC(=O)[C@@H](NC(=O)[C@H](CCC(=O)O)NC(=O)[C@H](CCCCN)NC(=O)CCOCCOCCN(CCOCCOCCC(=O)N[C@@H](CCCCN)C(=O)N[C@@H](CCC(=O)O)C(=O)N[C@H](C(=O)N[C@@H](CC(C)C)C(=O)N[C@H](C(=O)O)C(C)C)[C@@H](C)O)C(=O)[C@H](CCCNC(=N)N)NC(=O)[C@H](CCCNC(=N)N)NC(=O)[C@H](CCCNC(=N)N)NC(=O)[C@H](CCCNC(=N)N)NC(=O)[C@H](CCCNC(=N)N)NC(=O)CCC(=O)NCCOCCOCCCCCCCl)[C@@H](C)O)C(=O)N[C@H](C(=O)O)C(C)C [Compound 72] | – | 0.66 ± 0.14 |
| CC(C)C[C@H](NC(=O)[C@@H](NC(=O)[C@H](CCC(=O)O)NC(=O)[C@H](CCCCN)NC(=O)CCOCCOCCN(CCOCCOCCC(=O)N[C@@H](CCCCN)C(=O)N[C@@H](CCC(=O)O)C(=O)N[C@H](C(=O)N[C@@H](CC(C)C)C(=O)N[C@H](C(=O)O)C(C)C)[C@@H](C)O)C(=O)[C@H](CCCNC(=N)N)NC(=O)[C@H](CCCNC(=N)N)NC(=O)[C@H](CCCNC(=N)N)NC(=O)[C@H](CCC(N)=O)NC(=O)[C@H](CCCNC(=N)N)NC(=O)[C@H](CCCNC(=N)N)NC(=O)[C@H](CCCCN)NC(=O)[C@H](CCCCN)NC(=O)[C@H](CCCNC(=N)N)NC(=O)CNC(=O)[C@H](Cc1ccc(O)cc1)NC(=O)CCC(=O)NCCOCCOCCCCCCCl)[C@@H](C)O)C(=O)N[C@H](C(=O)O)C(C)C [Compound 12] | 72.5 ± 4.4 | – |
| CC(C)C[C@H](NC(=O)[C@@H](NC(=O)[C@H](CCC(=O)O)NC(=O)[C@H](CCCCN)NC(=O)CCOCCOCCN(CCOCCOCCC(=O)N[C@@H](CCCCN)C(=O)N[C@@H](CCC(=O)O)C(=O)N[C@H](C(=O)N[C@@H](CC(C)C)C(=O)N[C@H](C(=O)O)C(C)C)[C@@H](C)O)C(=O)[C@H](CCCNC(=N)N)NC(=O)[C@H](CCCNC(=N)N)NC(=O)[C@H](CCCNC(=N)N)NC(=O)[C@H](CCCNC(=N)N)NC(=O)[C@H](CCCNC(=N)N)NC(=O)[C@H](CCCNC(=N)N)NC(=O)[C@H](CCCNC(=N)N)NC(=O)CCC(=O)NCCOCCOCCCCCCCl)[C@@H](C)O)C(=O)N[C@H](C(=O)O)C(C)C [Compound 68] | – | 0.58 ± 0.09 |
| CC[C@H](C)[C@H](NC(=O)CCOCCOCCN(CCOCCOCCC(=O)N[C@H](C(=O)N[C@@H](CCC(=O)O)C(=O)N[C@H](C(=O)N[C@@H](CC(=O)O)C(=O)N[C@H](C(=O)O)C(C)C)[C@@H](C)O)[C@@H](C)CC)C(=O)[C@H](CCCCN)NC(=O)[C@H](CO)NC(=O)[C@H](Cc1c[nH]cn1)NC(=O)[C@H](C)NC(=O)[C@H](Cc1c[nH]cn1)NC(=O)[C@H](C)NC(=O)[C@H](CCC(N)=O)NC(=O)[C@H](CCCCN)NC(=O)[C@H](CCCNC(=N)N)NC(=O)[C@@H](NC(=O)[C@H](CCCNC(=N)N)NC(=O)[C@H](CCCNC(=N)N)NC(=O)[C@H](CCCNC(=N)N)NC(=O)[C@H](CC(C)C)NC(=O)[C@@H](NC(=O)[C@@H](NC(=O)[C@H](CC(C)C)NC(=O)[C@H](CC(C)C)NC(=O)CCC(=O)NCCOCCOCCCCCCCl)[C@@H](C)CC)[C@@H](C)CC)[C@@H](C)CC)C(=O)N[C@@H](CCC(=O)O)C(=O)N[C@H](C(=O)N[C@@H](CC(=O)O)C(=O)N[C@H](C(=O)O)C(C)C)[C@@H](C)O [Compound 53] | – | 1.7 ± 0.1 |
| CC[C@H](C)[C@H](NC(=O)CCOCCOCCN(CCOCCOCCC(=O)N[C@H](C(=O)N[C@@H](CO)C(=O)N[C@H](C(=O)N[C@@H](CC(=O)O)C(=O)N[C@H](C(=O)O)C(C)C)[C@@H](C)O)[C@@H](C)CC)C(=O)[C@H](CCCNC(=N)N)NC(=O)[C@H](CCCNC(=N)N)NC(=O)[C@H](CCCNC(=N)N)NC(=O)[C@H](CCCNC(=N)N)NC(=O)[C@H](CCCNC(=N)N)NC(=O)[C@H](CCCNC(=N)N)NC(=O)[C@H](CCCNC(=N)N)NC(=O)[C@H](CCCNC(=N)N)NC(=O)[C@H](CCCNC(=N)N)NC(=O)CCC(=O)NCCOCCOCCCCCCCl)C(=O)N[C@@H](CO)C(=O)N[C@H](C(=O)N[C@@H](CC(=O)O)C(=O)N[C@H](C(=O)O)C(C)C)[C@@H](C)O [Compound 32] | – | 1.05 ± 0.15 |
